pIC50: −log10 of the molar value.
Legend:
RT (Y181C) = molecular target: T1, RT (Y181C) (Human immunodeficiency virus type 1 group M subtype B, UniProt P04585, Y768C); format: biochemical; details: Y181C mutant HIV-1 RT
T1 construct: Heterodimeric RT was eluted using a descending gradient; made in house; host or cells: E. coli
From the text: (§1) REVERSE TRANSCRIPT (RT) ASSAYS
(§2) Among the enzymes for which Human Immunodeficiency Virus (HIV-1) encodes is a reverse transcriptase (1), so-named because it transcribes a DNA copy from an RNA template. This activity can be quantitatively measured in a cell-free enzyme assay, which has been previously described (2), and is based upon the observation that reverse transcriptase is able to use a synthetic template [poly r(C) primed with oligo d(G)] to transcribe a radio-labelled, acid-precipitable DNA strand utilizing ^3 H-dGTP as a substrate. The assay described below utilizes the wild type (WT) enzyme, which is the predominant form of the enzyme observed in patients infected with HIV-1.
Purification of recombinant reverse transcriptase was performed using a combination of methods previously described (5). This procedure is summarized briefly as follows: Bacteria were pelleted E. Coli containing RT-1 wt or RT-1 (Y181 C) were suspended in 50 mM MES, pH 6.0 containing 10% glycerol, lysed in a french press, centrifuged, and the supernates discarded. […]
The 2.4× concentrated stock reaction mixture is aliquoted and stored at -20° C. […] The filters are then dried, placed into plastic bags with Betaplate scintillation cocktail (Pharmacia/LKB) and counted in the Betaplate counter (Pharmacia/LKB). […]

AIDS = details: cited from earlier work
RT (WT) [1] = molecular target: T2, RT (WT) (Human immunodeficiency virus type 1 group M subtype B, UniProt P04585); details: same in vitro tests used for the compounds of the invention; cited from earlier work
RT (WT) [2] = molecular target: T2, RT (WT); assay: Reverse Transcriptase (RT) Assay, wild type; format: biochemical, HIV-1; parameters: Heterodimeric RT was eluted using a descending gradient; made in house; host or cells: E. coli (clone pKRT2, obtained from Yale University); details: read-out: RT (WT) Assay % inh. (1 μM)
From the text: as §1, §2
The HIV-1 RT expression clone, pKRT2, was obtained from Yale University (3). An overnight culture, grown in 2×YT medium (37° C., 225 rpm) (4), supplemented with 100 μg/mL ampicillin for positive selection was used to inoculate the 2×YT medium. The culture is incubated (37° C., 225 rpm) until it reaches an OD600 of 0.6-0.9. At that time the repressor inhibitor IPTG (isopropyl β-D-thiogalactopyranoside) is added to 0.5 mM, and the mixture is incubated for 2 additional hours.
Purification of recombinant reverse transcriptase was performed using a combination of methods previously described (5). This procedure is summarized briefly as follows: Bacteria were pelleted E. Coli containing RT-1 wt or RT-1 (Y181 C) were suspended in 50 mM MES, pH 6.0 containing 10% glycerol, lysed in a french press, centrifuged, and the supernates discarded. Lysate pellets were extracted with buffer A (50 mM MES, pH 6.0, 100 mM KCl, 50 mM KPi, 10% glycerol, 0.02% hexyl β-glucoside), and re-centrifuged; nucleic acid in supernates was precipitated with 0.1% polyethylenimine. […] Bound RT was eluted with a gradient of 0 to 1.0M (NH4)2 SO4 in buffer B. Heparin-Sepharose fractions containing RT were concentrated (Amicon YM-30 membrane), combined with equal volumes of 2.0M (NH4)2 SO4 in buffer B and injected onto a 21.5×150 mm TSK Phenyl-5PW HIC HPLC column (Phenomenex). Heterodimeric RT was eluted using a descending gradient of 1.0M to 0M (NH4)2 SO4 in buffer B, concentrated, and stored at 4° C.
The 2.4× concentrated stock reaction mixture is aliquoted and stored at -20° C. […] This enzyme assay has been adapted to a 96 well microtiter plate system, and has been previously described (6). Tris buffer (50 mM, pH 7.8), vehicle (solvent diluted to match the compound dilution), or compounds in vehicle are dispensed into 96-well microtiter plates (10 μL/well; 3 wells/compound). The HIV-1 RT enzyme is thawed, diluted in 50 mM Tris pH 7.8 containing 0.05% Chaps to give 1.5 nM enzyme and 25 μL are dispensed per well. Ten μL of 0.5M EDTA are added to the first three wells of the microtiter plate. EDTA chelates the Mg^++ present and prevents reverse transcription. This group serves as background polymerization which is subtracted from all other groups. Twenty-five μl of the 2.4× reaction mixture are added to all wells and the assay is allowed to incubate at room temperature for 30 minutes. The assay is terminated by precipitating the DNA in each well with 60μL of sodium pyrophosphate (2% w/v) in 10% trichloracetic acid (TCA) (10% w/v). The microtiter plate is incubated for 15 minutes at 4° C. and the precipitate is harvested onto #30 glass fiber paper (Schleicher & Schuell) using a Tomtech 96-well harvester. The filters are then dried, placed into plastic bags with Betaplate scintillation cocktail (Pharmacia/LKB) and counted in the Betaplate counter (Pharmacia/LKB).
The calculation for percent inhibition is as follows: [formula]

[3] = system: HTLV-IIIB strain of HIV-1 (in C8166-45 cells); assay: Syncytia (human T-cell culture) Assay; format: cell-based; details: Human immunodeficiency virus 1, T-cell; C8166-45 cells, HTLV-IIIB strain, 72 hours; read-out: Syncytia Assay IC50
Procedure: Formation of syncytia is a feature of in vitro cultures of CD4+ T-cells infected with HIV-1. In this assay (1), T-cells are treated with a putative replication inhibiting compound and then infected with HIV-1. After incubation, the culture is checked for the formation of syncytia. The absence or reduction in the number of syncytia is used as a measure of the test compound's ability to inhibit HIV replication.
The target cells, designated C8166-45, are a fusion of umbilical blood lymphocytes and T-cells from leukemia-lymphoma patients and are established at an initial density of 5×10^4 per 90 μl in RPMI 1640 (+10% fetal bovine serum) culture medium in 96 well flat bottom plates. A selected amount of test compound, dissolved in DMSO, is included. 50 TCID50 's (the dose that results in induced effect in 50% of test cultures) of the HTLV-IIIB strain of HIV-1 (3) are inoculated into each culture. Control cultures receive compound or virus only.
The cultures are incubated for 72 hours (4), at 37° C. with 5% carbon dioxide, and then visually examined for the frequency and distribution of virus-induced giant cell syncytia. The percent inhibition by the test compound is determined by comparison with control values.

C8166-45 cell line = assay: MTT Assay (cytotoxicity); format: cell-based, human; details: C8166-45 cells, five days

Compound | inhibition at 1 µM (RT (WT) [2]) [%] | pIC50 [3] | MTT Assay CC30 (C8166-45 cell line) [µM] | also measured
2-Chloro-5,11-dihydro-11-ethyl-8-[2-(3-methylsulfonamidophenyl)ethyl]-6H-dipyrido[3,2-b:2',3'-e][1,4]diazepin-6-one [Example 25] | – | – | – | RT (Y181C) Assay % inh. (1 μM) (RT (Y181C)): 70%
5,11-Dihydro-11-ethyl-5-methyl-8-phenylethynyl-6H-dipyrido[3,2-b:2',3'-e][1,4]diazepin-6-one [Example 48] | – | – | – | RT (Y181C) Assay % inh. (1 μM) (RT (Y181C)): 17%
Cc1ccnc2c1NC(=O)c1cccnc1N2C1CC1 [11-cyclopropyl-5,11-dihydro-4-methyl-6H-dipyrido[3,2-b;2',3', -e][1,4]diazepine-6-one] | – | – | – | active in the treatment of AIDS in human tests (AIDS): active in the treatment of AIDS in human tests; active in the same in vitro tests (RT (WT) [1]): active in the same in vitro tests
CCN1c2ncc(/C=C/c3ccncc3)cc2C(=O)N(C)c2cccnc21 [Example 1, 5,11-Dihydro-11-ethyl-5-methyl-8-[trans-2-(pyrid-4-yl)ethen-1-yl]-6H H-dipyridol[3,2-b:2',3'-e][1,4]diazepin-6-one] | 32 | – | – | –
CCN1c2ncc(CCc3ccncc3)cc2C(=O)N(C)c2cccnc21 [Example 2, 5,11-Dihydro-11-ethyl-5-methyl-8-[2-(pyrid-4-yl)ethyl]-6H-dipyrido[3,2-b:2',3'-e][1,4]diazepin-6-one] | 95 | 7.70 | > 60 | –
CCN1c2ncc(CCc3ccncc3)cc2C(=O)N(C)c2ccc(Cl)nc21 [Example 3, 2-Chloro-5,11-dihydro-11ethyl-5methyl-8-[2-(pyrid-4-yl)ethyl]-6H-dipyrido-[3,2-b:2',3'-e][1,4]diazepin-6-one] | 95 | 8.00 | 70 | –
CCN1c2ncc(CCc3ccncc3)cc2C(=O)N(C)c2ccc(C#N)nc21 [Example 4, 2-Cyano-5,11-dihydro-11-ethyl-8-[2-(4-pyridyl)ethyl]-5-methyl-6H-dipyrido-[3,2-b:2',3'-e][1,4]diazepin-6-one] | 82 | – | – | –
CCN1c2ncc(CCc3ccncc3)cc2C(=O)N(C)c2ccc(N)nc21 [Example 5, 2-Amino-5,11-dihydro-11-ethyl-8-[2-(4-pyridil)ethyl]-5-methyl-6H -dipyrido[3,2-b:2',3'-e][1,4]diazepin-6-one] | 68 | – | – | –
CCN1c2ncc(CCc3ccncc3)cc2C(=O)N(C)c2ccc(O)nc21 [Example 6, 5,11-Dihydro-11-ethyl-2-hydroxy-8-[2-(4-pyridil)ethyl]5-methyl-6H-dipyrido[3,2-b:2',3'-e][1,4]diazepin-6-one] | 21 | – | > 256 | –
CCN1c2ncc(CCOc3ccncc3)cc2C(=O)N(C)c2ccc(Cl)nc21 [Example 127, 2-chloro-5,11-dihydro-11-ethyl-5-methyl-8-[2-(pyrid-4-yloxy)ethyl]-6H-dipyrido[3,2-b:2',3'-e][1,4]diazepin-6-one] | – | 8.52 | 55 | –

— patent US5705499A, “8-arylalkyl- and 8-arylheteroalkyl-5,11-dihydro-6H-dipyrido[3,2-B:2',3'-e][1]diazepines and their use in the treatment of HIV-1 infection” (Boehringer Ingelheim Pharmaceuticals, Inc., priority 1996, dated 1998)
